Measurements published in ChEMBL document CHEMBL3860057, “Design and Synthesis of Potent Quinazolines as Selective β-Glucocerebrosidase Modulators” (J Med Chem, 2016).

Key:
[1] = molecular target: T1, Lysosomal acid glucosylceramidase (Homo sapiens, UniProt P04062); experiment: Inhibition of synthetic recombinant wild type GCase enzyme velaglucerase alfa (unknown origin) at pH 5.9 preincubated for 5 mins followed by addition of 4-Methylumbelliferyl beta-D-glucopyranoside as substrate measured after 30 mins by fluorescence analysis
T1 sequence (P04062 whole entry): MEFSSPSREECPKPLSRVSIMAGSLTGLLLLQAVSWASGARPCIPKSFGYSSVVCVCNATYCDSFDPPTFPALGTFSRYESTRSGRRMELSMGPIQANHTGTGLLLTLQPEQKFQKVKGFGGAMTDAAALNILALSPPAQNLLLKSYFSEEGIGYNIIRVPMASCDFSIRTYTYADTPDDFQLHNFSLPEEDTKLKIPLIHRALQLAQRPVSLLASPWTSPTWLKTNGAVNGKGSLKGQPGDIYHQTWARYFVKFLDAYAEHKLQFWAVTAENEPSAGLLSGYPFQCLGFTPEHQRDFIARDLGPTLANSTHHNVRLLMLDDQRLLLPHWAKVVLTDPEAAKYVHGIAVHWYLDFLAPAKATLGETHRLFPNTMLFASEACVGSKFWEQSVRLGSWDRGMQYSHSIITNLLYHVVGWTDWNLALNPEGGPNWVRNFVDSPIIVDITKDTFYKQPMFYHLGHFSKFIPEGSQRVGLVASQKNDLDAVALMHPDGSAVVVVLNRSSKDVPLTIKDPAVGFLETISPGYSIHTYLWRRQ

[2] = molecular target: T2, Lysosomal acid glucosylceramidase (Homo sapiens) (UniProt P04062)
T2 sequence (whole entry): T1 sequence (P04062 whole entry)
Description: Binding affinity to synthetic recombinant wild type GCase enzyme velaglucerase alfa (unknown origin) assessed as thermal stabilization by measuring change in melting temperature at lower concentration at pH 5 for every 10 secs by Sypro Orange-dye based fluorescence thermal shift assay

C[C@H]1CC[C@H](Nc2nc(-c3cccnc3)nc3ccccc23)CC1
IC50 [1]: 20 nM

c1ccc2c(c1)CC(Nc1nc(-c3ccsc3)nc3ccccc13)C2
ΔTm [2]: 11 °C
